From ChEMBL document CHEMBL1134122, “Substituted indole-5-carboxamides and -acetamides as potent nonpeptide GnRH receptor antagonists” (Bioorg Med Chem Lett, 2001)

Legend:
[1] = molecular target: T1, Gonadotropin-releasing hormone receptor (Rattus norvegicus, UniProt P30969); experiment: Inhibition GnRH-stimulated luteinizing hormone (LH) release from rat pituitary cells; assay type: functional, cell-based, Pituitary gland cell
T1 sequence (P30969 whole entry): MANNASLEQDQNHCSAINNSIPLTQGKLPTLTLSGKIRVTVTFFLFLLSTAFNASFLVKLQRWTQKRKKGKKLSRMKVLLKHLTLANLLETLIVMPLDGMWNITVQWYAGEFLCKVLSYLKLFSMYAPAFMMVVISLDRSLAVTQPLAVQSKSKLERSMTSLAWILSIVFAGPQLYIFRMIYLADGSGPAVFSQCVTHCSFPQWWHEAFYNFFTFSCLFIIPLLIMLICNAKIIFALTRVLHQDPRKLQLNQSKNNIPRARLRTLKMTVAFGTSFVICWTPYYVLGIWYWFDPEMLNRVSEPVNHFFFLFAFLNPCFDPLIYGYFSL

[2] = molecular target: T1, Gonadotropin-releasing hormone receptor; experiment: Inhibition of [125I]buserelin binding to rat pituitary Gonadotropin-releasing hormone receptor, in the absence of bovine serum albumin (BSA)
[3] = molecular target: T1, Gonadotropin-releasing hormone receptor; experiment: Inhibition of [125I]buserelin binding to rat pituitary Gonadotropin-releasing hormone receptor, in the presence of 0.1% bovine serum albumin.

SMILES | IC50 [1] | IC50 [2] | IC50 [3]
Cc1cc(C)cc(-c2[nH]c3ccc(C(=O)N4C(C)CCC4C)cc3c2CCNCCCCc2ccc(NS(C)(=O)=O)cc2)c1 (stereo not given) | 95 nM | 3 nM | 0.2 nM
CCN(CC)C(=O)C(C)(C)c1ccc2[nH]c(-c3cc(C)cc(C)c3)c(CCNCCCCc3ccc(NS(C)(=O)=O)cc3)c2c1 | 42 nM | 2 nM | 0.2 nM
Cc1cc(C)cc(-c2[nH]c3ccc(C(C)(C)C(=O)N4C(C)CCC4C)cc3c2CCNCCCCc2ccc(NS(C)(=O)=O)cc2)c1 (stereo not given) | 65 nM | 3 nM | 0.2 nM
CCCN(CCC)C(=O)c1ccc2[nH]c(-c3cc(C)cc(C)c3)c(CCNCCCCc3ccc(NS(C)(=O)=O)cc3)c2c1 | 140 nM | 5 nM | 
Cc1cc(C)cc(-c2[nH]c3ccc(C(=O)N(CC(C)C)CC(C)C)cc3c2CCNCCCCc2ccc(NS(C)(=O)=O)cc2)c1 | 32 nM |  | 0.4 nM
CCCN(CCC)C(=O)C(C)(C)c1ccc2[nH]c(-c3cc(C)cc(C)c3)c(CCNCCCCc3ccc(NS(C)(=O)=O)cc3)c2c1 | 70 nM | 5 nM | 0.4 nM
CCOC(=O)C(C)(C)c1ccc2[nH]c(-c3cc(C)cc(C)c3)c(CCNCCCCc3ccc(NS(C)(=O)=O)cc3)c2c1 | 150 nM | 3 nM | 0.3 nM
Cc1cc(C)cc(-c2[nH]c3ccc(C(=O)N4CCOCC4)cc3c2CCNCCCCc2ccc(NS(C)(=O)=O)cc2)c1 | 400 nM | 2 nM | 0.2 nM
Cc1cc(C)cc(-c2[nH]c3ccc(C(=O)N4CCCCC4)cc3c2CCNCCCCc2ccc(NS(C)(=O)=O)cc2)c1 | 220 nM | 2 nM | 
CCN(CC)C(=O)C(C)c1ccc2[nH]c(-c3cc(C)cc(C)c3)c(CCNCCCCc3ccc(NS(C)(=O)=O)cc3)c2c1 (stereo not given) | 130 nM | 2 nM | 0.2 nM
CCCCN(CC)C(=O)c1ccc2[nH]c(-c3cc(C)cc(C)c3)c(CCNCCCCc3ccc(NS(C)(=O)=O)cc3)c2c1 | 240 nM | 4 nM | 
Cc1cc(C)cc(-c2[nH]c3ccc(C(=O)N(C(C)C)C(C)C)cc3c2CCNCCCCc2ccc(NS(C)(=O)=O)cc2)c1 | 72 nM | 3 nM | 0.3 nM
Cc1cc(C)cc(-c2[nH]c3ccc(C(C)(C)C(=O)N4CCOCC4)cc3c2CCNCCCCc2ccc(NS(C)(=O)=O)cc2)c1 | 81 nM |  | 0.12 nM
Cc1cc(C)cc(-c2[nH]c3ccc(OC(=O)N(C)C)cc3c2CCNCCCCc2ccc(O)cc2)c1 |  | 3 nM | 
Cc1cc(C)cc(-c2[nH]c3ccc(C(C)(C)C(=O)N4CCCC4)cc3c2CCNCCCCc2ccc(NS(C)(=O)=O)cc2)c1 | 40 nM | 2 nM | 0.2 nM
Cc1cc(C)cc(-c2[nH]c3ccc(C(=O)N4CCCC4)cc3c2CCNCCCCc2ccc(NS(C)(=O)=O)cc2)c1 | 510 nM | 4 nM | 0.2 nM
CCN(C(=O)c1ccc2[nH]c(-c3cc(C)cc(C)c3)c(CCNCCCCc3ccc(NS(C)(=O)=O)cc3)c2c1)C(C)(C)C | 660 nM |  | 0.8 nM
CCN(CC)C(=O)Cc1ccc2[nH]c(-c3cc(C)cc(C)c3)c(CCNCCCCc3ccc(NS(C)(=O)=O)cc3)c2c1 | 130 nM | 3 nM | 0.2 nM
Cc1cc(C)cc(-c2[nH]c3ccc(C(=O)N4C5CCC4CC5)cc3c2CCNCCCCc2ccc(NS(C)(=O)=O)cc2)c1 | 210 nM | 3 nM | 0.4 nM
Cc1cc(C)cc(-c2[nH]c3ccc(CC(=O)N4C(C)CCC4C)cc3c2CCNCCCCc2ccc(NS(C)(=O)=O)cc2)c1 (stereo not given) | 95 nM | 3 nM | 0.1 nM

Now from value to compound:

IC50 [1] | IC50 [2] | IC50 [3] | SMILES
> 6200 nM |  |  | Cc1cc(C)cc(-c2[nH]c3ccccc3c2CCNCCCCc2ccc(O)cc2)c1
800 nM | 4 nM |  | Cc1cc(C)cc(-c2[nH]c3ccc(C(=O)N4CCOCC4)cc3c2CCNCCCCc2ccc(O)cc2)c1
690 nM | 2 nM |  | Cc1cc(C)cc(-c2[nH]c3ccc(C(=O)N(C)C)cc3c2CCNCCCCc2ccc(NS(C)(=O)=O)cc2)c1
2000 nM | 2 nM |  | CCOC(=O)Cc1ccc2[nH]c(-c3cc(C)cc(C)c3)c(CCNCCCCc3ccc(NS(C)(=O)=O)cc3)c2c1
160 nM | 3 nM | 0.1 nM | Cc1cc(C)cc(-c2[nH]c3ccc(C(C)(C)C(=O)N(C)C)cc3c2CCNCCCCc2ccc(NS(C)(=O)=O)cc2)c1
320 nM | 2 nM | 0.1 nM | Cc1cc(C)cc(-c2[nH]c3ccc(CC(=O)N(C)C)cc3c2CCNCCCCc2ccc(NS(C)(=O)=O)cc2)c1
610 nM | 4 nM | 0.5 nM | CCOC(=O)C(C)c1ccc2[nH]c(-c3cc(C)cc(C)c3)c(CCNCCCCc3ccc(NS(C)(=O)=O)cc3)c2c1 (stereo not given)
540 nM | 6 nM | 0.5 nM | CCN(CC)C(=O)c1ccc2[nH]c(-c3cc(C)cc(C)c3)c(CCNCCCCc3ccc(O)cc3)c2c1
 | 24 nM |  | Cc1cc(C)cc(-c2[nH]c3ccc(C(=O)NCc4ccccc4)cc3c2CCNCCCCc2ccc(O)cc2)c1
270 nM | 2 nM | 0.2 nM | CCN(CC)C(=O)c1ccc2[nH]c(-c3cc(C)cc(C)c3)c(CCNCCCCc3ccc(NS(C)(=O)=O)cc3)c2c1
380 nM |  |  | Cc1cc(C)cc(-c2[nH]c3ccc(C(=O)N(CC(C)C)CC(C)C)cc3c2CCNCCCCc2ccc(O)cc2)c1
2400 nM | 6 nM |  | CCNC(=O)c1ccc2[nH]c(-c3cc(C)cc(C)c3)c(CCNCCCCc3ccc(NS(C)(=O)=O)cc3)c2c1
 | 32 nM |  | CCOC(=O)c1ccc2[nH]c(-c3cc(C)cc(C)c3)c(CCNCCCCc3ccc(O)cc3)c2c1
> 6200 nM | 14 nM |  | CCOC(=O)c1ccc2[nH]c(-c3cc(C)cc(C)c3)c(CCNCCCCc3ccc(NS(C)(=O)=O)cc3)c2c1
120 nM | 3 nM |  | CCN(C(=O)c1ccc2[nH]c(-c3cc(C)cc(C)c3)c(CCNCCCCc3ccc(NS(C)(=O)=O)cc3)c2c1)C(C)C
820 nM | 5 nM |  | Cc1cc(C)cc(-c2[nH]c3ccc(C(=O)N(C)C)cc3c2CCNCCCCc2ccc(O)cc2)c1
